# From PubChem BioAssay AID2745 (NMMLSC, 2010)
# Active and inactive are the calls of the source. The rule behind the calls is not given here.
# System: not listed separately
# Experiment: LAP4-GFP modulation potency in yeast, dose response, cell-based, MLPCN hits, flow cytometry (AID 2745);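 note: yeast exposed to compound for three hours at 30 degrees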
# Conditions: S. cerevisiae LAP4-GFP reporter, flow cytometry fluorescence; at 33 µM (top of the series)
row,Structure (SMILES),LAP4-GFP fluorescence (kMESF)
1,COc1ccc2c(/C=C/c3cc[n+](C)cc3)c[nH]c2c1,3.71 kMESF (inactive)
2,Oc1ccc(COCc2ccccc2)c2cccnc12,20.4 kMESF (inactive)
3,CSc1nnc2c3cc(F)ccc3n(C)c2n1,2.93 kMESF (inactive)
4,Fc1cccc(Nc2ncnc3c2cnn3-c2ccccc2)c1,5.86 kMESF (inactive)
5,O=C1C(Cl)=C(NCCc2ccccc2)C(=O)N1CCc1ccccc1,5.91 kMESF (inactive)
6,COc1cc(/C=C2\C(=O)ON=C2c2ccc(Cl)cc2)ccc1O,9.12 kMESF (inactive)
7,N/C(Cc1ccc(Cl)cc1Cl)=N\OC(=O)c1ccccc1,9.94 kMESF (inactive)
8,O=C(Oc1oc(-c2ccco2)nc1C=Nc1ccc(Cl)cc1)c1ccco1,8.92 kMESF (inactive)
9,Cc1ccccc1[C@]1(C)ON(c2ccccc2C(F)(F)F)C1=O,3.24 kMESF (inactive)
10,CCOC(=O)CS(=O)(=O)c1nc(-c2ccccc2)cc(C(F)(F)F)n1,19.9 kMESF (inactive)
11,Cc1[nH][nH]c(=O)c1C(c1ccc(-c2ccc(Cl)cc2)o1)c1c(C)[nH][nH]c1=O,6.67 kMESF (inactive)
12,COc1ccc(/C=C2/C(=O)ON=C2c2ccccc2)cc1OC,14 kMESF (inactive)
13,CCN(CC)C(=O)Oc1ccnc2cc(Cl)ccc12,7.62 kMESF (inactive)
14,CC1=C/C(=N\OS(=O)(=O)c2ccccc2)C(C)=CC1=O,4.1 kMESF (inactive)
15,O=C(Sc1cccc2cccnc12)c1ccccc1Br,18.8 kMESF (inactive)
16,CN(C)c1ccc(N=Cc2nc(-c3ccccc3)oc2OC(=O)c2cccc(Cl)c2)cc1,3.99 kMESF (inactive)
17,Cc1ccnc(N2C(=O)c3cccc4c([N+](=O)[O-])ccc(c34)C2=O)c1,33.2 kMESF (inactive)
18,Oc1c(CN2CCN(c3ccc(F)cc3)CC2)cc(Cl)c2cccnc12,13.1 kMESF (inactive)
19,Clc1cnc(N/N=C/c2cccs2)c(Cl)c1,6.2 kMESF (inactive)
20,CC(=O)[C@]1(O)Cc2c(O)c3c(c(O)c2[C@@H](O[C@H]2C[C@H](N)[C@H](O)[C@H](C)O2)C1)C(=O)c1ccccc1C3=O,9.67 kMESF (inactive)
21,N#Cc1c2ccc([N+](=O)[O-])cc2[n+]([O-])n1-c1ccccc1,4.85 kMESF (inactive)
22,Cc1cc(C)c2c(c1)/C(=C/C(=O)c1ccc(Br)s1)C(=O)N2,6.56 kMESF (inactive)

row,Structure (SMILES),LAP4-GFP fluorescence (kMESF)
1,CN1C(=O)/C(=N\OC(=O)c2cccc3ccccc23)c2ccccc21,7.11 kMESF (inactive)
2,COc1cc(/C=C/[N+](=O)[O-])ccc1O,7.18 kMESF (inactive)
3,Oc1cc(-c2ccc(N3CCCCC3)nc2)cc2cccnc12,4.15 kMESF (inactive)
4,CCc1nc2ccccc2c(=O)n1NC(=O)c1c(O)c2cccc3c2n(c1=O)CCC3,3.04 kMESF (inactive)
5,O=C(NCc1ccc2c(c1)OCO2)c1nc(S(=O)(=O)Cc2ccccc2)ncc1Cl,4.7 kMESF (inactive)
6,Cc1cc(NC(=O)c2cccnc2Cl)ccc1NC(=O)c1cc2ccccc2o1,3.41 kMESF (inactive)
7,CCN(CC)c1ccc2cc(-c3nc4ccccc4[nH]3)c(=O)oc2c1,3.03 kMESF (inactive)
8,Nc1ccccc1SC(C[N+](=O)[O-])c1ccccc1 (stereo not given),11.5 kMESF (inactive)
9,O=C(c1ccccn1)c1conc1C(=O)c1ccc(Br)cc1,9.07 kMESF (inactive)
10,O=C(COc1ccccc1)N1CCN(c2ncnc3c2cnn3-c2ccccc2)CC1,3.38 kMESF (inactive)
11,O=C(/C=C/c1ccccc1Cl)c1ccccc(=O)c1O,-5.15 kMESF (inactive)
12,Cc1ccc(/C=C2\SC(=S)N(Cc3ccccc3)C2=O)o1,18.1 kMESF (inactive)
13,Cc1ccc(-c2nc(C)sc2CC(=O)Nc2nnc(C)s2)cc1,3.81 kMESF (inactive)
14,Cc1ccc(C)c(/C=C/C(=O)c2ccccc(=O)c2O)c1,-0.2 kMESF (inactive)
15,Oc1ccc2ccccc2c1/C=N/Nc1nnc(-c2ncc[nH]2)c2ccccc12,-7.45 kMESF (inactive)
16,CCc1ccc(/C=C/C(=O)c2cc(Br)ccc(=O)c2O)cc1,9 kMESF (inactive)
17,CC1(C(=O)NC(=S)NNC(=O)c2ccncc2)CCCCC1,4.99 kMESF (inactive)
18,Cc1nn2c(NCc3ccccn3)c3c(nc2c1-c1ccccc1)CCC3,7.76 kMESF (inactive)
19,C=CCOc1ccccc1C(=O)/C=C1/C(=O)Nc2ccccc21,10.2 kMESF (inactive)
20,CCCN1CCc2c(sc(NC(=S)NC(=O)c3ccccc3)c2C#N)C1,7.91 kMESF (inactive)
21,CC(C)[C@@]1(c2ccc(Cl)cc2)ON(c2ccccc2C(F)(F)F)C1=O,3.53 kMESF (inactive)
22,CCC(=O)Oc1oc(-c2ccccc2)nc1C=Nc1ccccc1OC,4.64 kMESF (inactive)

row,Structure (SMILES),LAP4-GFP fluorescence (kMESF)
1,CC(=O)Oc1oc(-c2ccccc2)nc1C=Nc1ccc(N(C)C)cc1,7.39 kMESF (inactive)
2,Cc1ccc(NC(=O)c2nc(S(=O)(=O)Cc3ccccc3)ncc2Cl)cc1,9.01 kMESF (inactive)
3,COc1ccc(NC(=O)/C(C#N)=C/c2ncc([N+](=O)[O-])n2C)c(OC)c1,9.76 kMESF (inactive)
4,O=[N+]([O-])c1c(Nc2ccccn2)cc(Cl)c2nonc12,36.2 kMESF (inactive)
5,O=C(NOC(=O)c1ccccc1)c1ccccc1,10.6 kMESF (inactive)
6,O=C(NNC(=S)NC(=O)c1ccco1)c1ccc(F)cc1,5.61 kMESF (inactive)
7,O=C1CCN(S(=O)(=O)c2ccccc2)CCN1CCOCc1ccc(F)cc1,2.43 kMESF (inactive)
8,Oc1c(Br)cc(Br)cc1C=Nc1ccc2c(c1)OCO2,10.8 kMESF (inactive)
9,COc1ccc(Cl)cc1C(Nc1cccnc1)c1ccc2cccnc2c1O (stereo not given),19.3 kMESF (inactive)
10,Cc1ccccc1OCC(=O)NNC(=S)NC(=O)c1ccco1,6.11 kMESF (inactive)
11,C=CCn1c(C)c(/C=C/c2cc[n+](C)cc2)c2ccccc21,10.8 kMESF (inactive)
12,CC1(C)OC(c2ccccc2)=C/C(=C/C=C2C(=O)NC(=S)NC2=O)O1,3.03 kMESF (inactive)
13,CS(=O)(=O)c1nc(-c2ccccc2)cc(C(F)(F)F)n1,16.6 kMESF (inactive)
14,COc1cc(/C=C2/C(=O)ON=C2c2ccccc2)ccc1O,9.39 kMESF (inactive)
15,CCCc1ccc(OCC(=O)NNC(=S)NC(=O)c2ccco2)cc1,11.2 kMESF (inactive)
16,C#CCOCCOCCOCCNc1nc(N2CCN(C(=O)CCCCCCCCCCNC(=O)[C@H](CCCCN)n3cc(C)nn3)CC2)nc(N2CCN(C(=O)CCCCCCCCCCNC(=O)[C@H](CCCN=C(N)N)n3cc(C[C@@H](C)CC)nn3)CC2)n1,6.77 kMESF (inactive)
17,CCC1(c2ccccc2)ON(c2c(Br)cccc2Br)C1=O (stereo not given),7.52 kMESF (inactive)
18,CCOc1ccc(N/N=C(/C#N)C(N)=O)cc1,9.57 kMESF (inactive)
19,O=C1N(c2ccccc2C(F)(F)F)OC1(Cc1ccccc1)c1ccccc1 (stereo not given),4.48 kMESF (inactive)
20,N/C(=N\OC(=O)c1cc(Br)ccc1Cl)c1ccccn1,12.2 kMESF (inactive)
21,COc1ccc(OC)c(S(=O)(=O)ON2C(=O)c3ccccc3C2=O)c1,1.75 kMESF (inactive)
22,CC1(c2ccccc2)ON(c2ccccc2C(F)(F)F)C1=O (stereo not given),5.97 kMESF (inactive)

row,Structure (SMILES),LAP4-GFP fluorescence (kMESF)
1,O=C(O)c1cc[c]([Hg][Cl])cc1,8.49 kMESF (inactive)
2,COC(CNC(=O)c1ccc2c3c(onc13)-c1ccccc1C2=O)OC,2.86 kMESF (inactive)
3,Cc1ccc(C(=O)NNC(=S)NC(=O)c2ccco2)cc1,7.42 kMESF (inactive)
4,C#CCOc1c(Br)cc(/C=C2/C(=O)ON=C2C)cc1OC,12.2 kMESF (inactive)
5,Cc1c(Br)c(=O)oc2c(Br)c(O)c(O)cc12,2.43 kMESF (inactive)
6,COc1ccccc1C(=O)NNC(=S)NC(=O)c1cccs1,6.21 kMESF (inactive)
7,CCCc1cc(N2CCN(c3ccccn3)CC2)n2nc(C)c(-c3ccccc3)c2n1,5.75 kMESF (inactive)
8,Cc1sc(/C=C2\C(=O)ON=C2c2ccccc2)cc1Br,2.73 kMESF (inactive)
9,CC[C@]1(c2ccccc2C)ON(c2ccccc2C(F)(F)F)C1=O,3.33 kMESF (inactive)
10,O=C1C=CC(=O)N1c1ccc(Sc2ccc([N+](=O)[O-])cc2)cc1,5.47 kMESF (inactive)
11,Cc1ccc(C2=NN(S(C)(=O)=O)C(c3ccc4c(c3)OCO4)C2)cc1 (stereo not given),4.78 kMESF (inactive)
12,COc1cc(C=C2C(=O)c3ccccc3C2=O)cc(OC)c1OC,4.04 kMESF (inactive)
13,CCCCCCCCCCCCCCCC[n+]1cccc2ccccc21,1.21 kMESF (inactive)
14,Cc1cc2ccccn2c1C(=O)c1ccc([N+](=O)[O-])o1,-3.89 kMESF (inactive)
15,Cc1ccc(N=c2ssnc2Cl)cc1,10.6 kMESF (inactive)
16,Cc1nc2ccc(NC(=O)c3oc4ccc(F)cc4c3C)cc2s1,3.28 kMESF (inactive)
17,C=CCN1C(=O)/C(=C/c2ccc(-c3ccc(F)cc3)o2)SC1=S,15 kMESF (inactive)
18,Cc1ccc(N2C(=O)CC(Sc3ncn[nH]3)C2=O)cc1C (stereo not given),7.56 kMESF (inactive)
19,CCc1ccc(C(=O)/C=C/c2ccc([N+](=O)[O-])o2)cc1,10.5 kMESF (inactive)

# System: S. cerevisiae LAP4-GFP reporter, flow cytometry fluorescence
# Experiment: as above
# Conditions: not given
row,Structure (SMILES),EC50
1,O=C1NC(=O)N(c2ccccc2)C(=O)/C1=C/c1ccc(Sc2ccccc2)o1,11.2 µM
2,CC(C)Oc1ccc(C(=O)/C=C2/C(=O)Nc3ccccc32)cc1,9.41 µM
3,CCSc1nnc(NC(=O)c2ccccn2)s1,30.3 µM
4,Nc1ccc(Br)c2c1C(=O)c1ccccc1C2=O,1.18 µM
5,Cc1ccc(N/N=C(\C#N)C(N)=S)c(C)c1,11.7 µM
